According to patent US10166216B2 (Rigel Pharmaceuticals, Inc., priority 2006, dated 2019):

The molecules below were run against Axl (Homo sapiens (Human), UniProt P30530) (assay: Phospho-Akt in-cell Western assay (Axl-antibody cross-linking stimulation)). Settings: inhibition of Axl activity, Hela cells, phospho-Akt readout; Table 1, formula (Ia1).
Type: cell-based
Summary of the method: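 HeLa cells on poly-L-lysine, starved 24 hrs with Axl/Fc, pre-treated with compound 1 hr at 37° C., then stimulated 5 min with Axl primary/secondary antibody cluster. Fixed cells probed for phospho-Akt by chemiluminescent in-cell Western; signal normalized to crystal violet cell number.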

Axl, sequence (P30530 26-894): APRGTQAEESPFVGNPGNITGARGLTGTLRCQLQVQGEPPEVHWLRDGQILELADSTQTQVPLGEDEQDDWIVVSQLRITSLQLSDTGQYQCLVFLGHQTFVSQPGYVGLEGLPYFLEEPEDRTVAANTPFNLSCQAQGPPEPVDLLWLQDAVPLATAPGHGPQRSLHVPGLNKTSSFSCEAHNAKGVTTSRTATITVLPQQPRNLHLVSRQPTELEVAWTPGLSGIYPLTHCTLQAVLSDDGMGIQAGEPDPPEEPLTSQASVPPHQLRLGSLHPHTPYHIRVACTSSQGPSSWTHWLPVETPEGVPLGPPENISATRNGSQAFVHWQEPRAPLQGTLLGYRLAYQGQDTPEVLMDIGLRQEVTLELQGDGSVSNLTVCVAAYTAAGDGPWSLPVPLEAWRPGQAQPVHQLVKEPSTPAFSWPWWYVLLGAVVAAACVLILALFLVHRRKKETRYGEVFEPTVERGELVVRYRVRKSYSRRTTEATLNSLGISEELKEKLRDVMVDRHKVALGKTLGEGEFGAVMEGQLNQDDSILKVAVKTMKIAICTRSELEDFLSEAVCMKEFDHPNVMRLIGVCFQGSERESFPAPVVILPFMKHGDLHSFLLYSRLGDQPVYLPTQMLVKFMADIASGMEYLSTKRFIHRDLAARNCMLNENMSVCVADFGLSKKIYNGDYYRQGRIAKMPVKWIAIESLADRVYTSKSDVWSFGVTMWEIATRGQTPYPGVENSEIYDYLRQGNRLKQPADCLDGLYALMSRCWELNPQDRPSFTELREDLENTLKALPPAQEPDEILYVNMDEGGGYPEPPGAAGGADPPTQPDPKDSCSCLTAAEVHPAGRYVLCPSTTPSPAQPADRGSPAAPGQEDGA

Compound | IC50 [nM]
Nc1nc(Nc2ccc(OCCN3CCCC3)cc2)nn1-c1nc(Cl)nc2cc(Cl)sc12 [Compound 175, 1-(2,6-dichlorothieno[3,2-d]pyrimidin-4-yl)-N^3-(4-(2-pyrrolidin-1-ylethoxy)phenyl)-1H-1,2,4-triazole-3,5-diamine] | < 1000
Nc1nc(Nc2ccc(OCCN3CCCC3)cc2)nn1-c1nc(Cl)nc2sccc12 [Compound 176, 1-(2-chlorothieno[2,3-d]pyrimidin-4-yl)-N^3-(4-(2-pyrrolidin-1-ylethoxy)phenyl)-1H-1,2,4-triazole-3,5-diamine] | < 1000
Nc1nc(Nc2ccc(OCCN3CCCC3)cc2)nn1-c1nc(Cl)nc2ccsc12 [Compound 177, 1-(2-chlorothieno[3,2-d]pyrimidin-4-yl)-N^3-(4-(2-pyrrolidin-1-ylethoxy)phenyl)-1H-1,2,4-triazole-3,5-diamine] | < 1000

Same assay, conditions: inhibition of Axl activity, Hela cells, phospho-Akt readout; Table 5, formula (Ia3)

Compound | IC50 [nM]
COc1ccc(Nc2nc(N)n(-c3ccccn3)n2)cc1 [Compound 142, N^3-(4-methoxyphenyl)-1-(pyridin-2-yl)-1H-1,2,4-triazole-3,5-diamine] | > 20000
CCOC(=O)c1ccc(Nc2nc(N)n(-c3ccnc(Cl)c3)n2)cc1 [Compound 143, ethyl 4-(5-amino-1-(2-chloropyridin-4-yl)-1H-1,2,4-triazol-3-ylamino)benzoate] | > 20000
CC(=O)c1ccc(Nc2nc(N)n(-c3cnc4ccccc4n3)n2)cc1 [Compound 144, 1-(4-(5-amino-1-(quinoxalin-2-yl)-1H-1,2,4-triazol-3-ylamino)phenyl)ethanone] | > 20000
Nc1nc(Nc2ccc(C(=O)O)cc2)nn1-c1ccnc(N2CCC[C@H]2CN2CCCC2)c1 [Compound 146, (S)-4-(5-amino-1-(2-(2-(pyrrolidin-1-ylmethyl)pyrrolidin-1-yl)pyridin-4-yl)-1H-1,2,4-triazol-3-ylamino) benzoic acid] | > 20000
CC(=O)c1ccc(Nc2nc(N)n(-c3ccccc3F)n2)cc1 [Compound 147, 1-(4-(5-amino-1-(2-fluorophenyl)-1H-1,2,4-triazol-3-ylamino)phenyl)ethanone] | > 20000
Nc1nc(Nc2cc(F)c(F)c(F)c2)nn1-c1ccccn1 [Compound 149, 1-(pyridin-2-yl)-N^3-(3,4,5-trifluorophenyl)-1H-1,2,4-triazole-3,5-diamine] | > 20000
Nc1nc(Nc2cccc(O)c2)nn1-c1ccccn1 [Compound 150, 3-(5-amino-1-(pyridin-2-yl)-1H-1,2,4-triazol-3-ylamino)phenol] | > 20000
Nc1nc(Nc2ccc(CCC(=O)N3CCCC3)cc2)nn1-c1cnc2ccccc2n1 [Compound 152, 3-(4-(5-amino-1-(quinoxalin-2-yl)-1H-1,2,4-triazol-3-ylamino)phenyl)-1-(pyrrolidin-1-yl)propan-1-one] | > 20000
COc1cc2ncnc(-n3nc(Nc4ccc(OC5CCCN(C)C5)cc4)nc3N)c2cc1OC (centres unmarked) [Compound 153, 1-(6,7-dimethoxyquinazolin-4-yl)-N^3-(4-(1-methylpiperidin-3-yloxy)phenyl)-1H-1,2,4-triazole-3,5-diamine] | < 1000
CN1CCCC(Oc2ccc(Nc3nc(N)n(-c4nccc5ccccc45)n3)cc2)C1 (centres unmarked) [Compound 155, 1-(isoquinolin-1-yl)-N^3-(4-(1-methylpiperidin-3-yloxy)phenyl)-1H-1,2,4-triazole-3,5-diamine] | < 1000
COc1cc2ncnc(-n3nc(Nc4ccc(N5CCOCC5)cc4)nc3N)c2cc1OC [Compound 158, 1-(6,7-dimethoxyquinazolin-4-yl)-N^3-(4-morpholinophenyl)-1H-1,2,4-triazole-3,5-diamine] | < 1000
COc1cc2ncnc(-n3nc(Nc4ccc(N5CCOCC5)c(Cl)c4)nc3N)c2cc1OC [Compound 159, N^3-(3-chloro-4-morpholinophenyl)-1-(6,7-dimethoxyquinazolin-4-yl)-1H-1,2,4-triazole-3,5-diamine] | < 1000
Nc1nc(Nc2ccc(N3CCOCC3)c(F)c2)nn1-c1nccc2ccccc12 [Compound 161, N^3-(3-fluoro-4-morpholinophenyl)-1-(isoquinolin-1-yl)-1H-1,2,4-triazole-3,5-diamine] | < 1000
COc1cc2ncnc(-n3nc(Nc4ccc(N5CCOCC5)c(F)c4)nc3N)c2cc1OC [Compound 162, 1-(6,7-dimethoxyquinazolin-4-yl)-N^3-(3-fluoro-4-morpholinophenyl)-1H-1,2,4-triazole-3,5-diamine] | < 1000
CN1CCN(Cc2ccc(Nc3nc(N)n(-c4nccc5ccccc45)n3)cc2)CC1 [Compound 163, 1-(isoquinolin-1-yl)-N^3-(4-((4-methylpiperazin-1-yl)methyl)phenyl)-1H-1,2,4-triazole-3,5-diamine] | < 1000
CN(C)[C@@H]1CCN(c2ccc(Nc3nc(N)n(-c4nccc5ccccc45)n3)cc2)C1 [Compound 164, N^3-(4-((R)-3-(dimethylamino)pyrrolidin-1-yl)phenyl)-1-(isoquinolin-1-yl)-1H-1,2,4-triazole-3,5-diamine] | < 1000
CN(C)[C@H]1CCN(c2ccc(Nc3nc(N)n(-c4nccc5ccccc45)n3)cc2)C1 [Compound 165, N^3-(4-((S)-3-(dimethylamino)pyrrolidin-1-yl)phenyl)-1-(isoquinolin-1-yl)-1H-1,2,4-triazole-3,5-diamine] | < 1000
Nc1nc(Nc2ccc(-c3cnco3)cc2)nn1-c1nccc2ccccc12 [Compound 166, 1-(isoquinolin-1-yl)-N^3-(4-(oxazol-5-yl)phenyl)-1H-1,2,4-triazole-3,5-diamine] | > 20000
CN1CCC(c2ccc(Nc3nc(N)n(-c4nccc5ccccc45)n3)cc2)CC1 [Compound 167, 1-(isoquinolin-1-yl)-N^3-(4-(1-methylpiperidin-4-yl)phenyl)-1H-1,2,4-triazole-3,5-diamine] | < 1000
COc1cc2ncnc(-n3nc(Nc4ccc(C5CCN(C)CC5)cc4)nc3N)c2cc1OC [Compound 168, 1-(6,7-dimethoxyquinazolin-4-yl)-N^3-(4-(1-methylpiperidin-4-yl)phenyl)-1H-1,2,4-triazole-3,5-diamine] | < 1000
COc1cc2c(-n3nc(Nc4ccc(C5CCN(C)CC5)cc4)nc3N)ncnc2cc1O [Compound 169, 4-(5-amino-3-(4-(1-methylpiperidin-4-yl)phenylamino)-1H-1,2,4-triazol-1-yl)-6-methoxyquinazolin-7-ol] | < 1000
COc1cc2ncnc(-n3nc(Nc4ccc(N5CC[C@H](N(C)C)C5)cc4)nc3N)c2cc1OC [Compound 171, 1-(6,7-dimethoxyquinazolin-4-yl)-N^3-(4-((S)-3-(dimethylamino)pyrrolidin-1-yl)phenyl)-1H-1,2,4-triazole-3,5-diamine] | < 1000
COc1cc2ncnc(-n3nc(Nc4ccc(CN5CCN(C)CC5)cc4)nc3N)c2cc1OC [Compound 173, 1-(6,7-dimethoxyquinazolin-4-yl)-N^3-(4-((4-methylpiperazin-1-yl)methyl)phenyl)-1H-1,2,4-triazole-3,5-diamine] | < 1000
COc1cc2ccnc(-n3nc(Nc4ccc(C5CCN(C)CC5)cc4)nc3N)c2cc1OC [Compound 174, 1-(6,7-dimethoxyisoquinolin-1-yl)-N^3-(4-(1-methylpiperidin-4-yl)phenyl)-1H-1,2,4-triazole-3,5-diamine] | < 1000

Same assay, conditions: inhibition of Axl activity, Hela cells, phospho-Akt readout; Table 6, formula (Ib3)

Compound | IC50 [nM]
Nc1nc(Nc2ccc(N3CCOCC3)cc2)n(-c2nccc3ccccc23)n1 [Compound 157, 1-(isoquinolin-1-yl)-N^5-(4-morpholinophenyl)-1H-1,2,4-triazole-3,5-diamine] | > 20000

Same assay, conditions: inhibition of Axl activity, phospho-Akt in-cell Western assay

Compound | IC50 [nM]
Cc1csc2c(-n3nc(Nc4ccc(C5CCN(C6CC7CCC6C7)CC5)cc4)nc3N)nc(Cl)nc12 (centres unmarked) [Compound 134, N^3-(4-(1-(bicyclo[2.2.1]heptan-2-yl)piperidin-4-yl)phenyl)-1-(2-chloro-7-methylthieno[3,2-d]pyrimidin-4-yl)-1H-1,2,4-triazole-3,5-diamine] | < 1000
Nc1nc(Nc2ccc(N3CCN(C4CC5CCC4C5)CC3)cc2)nn1-c1nc(C(F)(F)F)nc2ccccc12 (centres unmarked) [Compound 136, N^3-(4-(4-(bicyclo[2.2.1]heptan-2-yl)piperazin-1-yl)phenyl)-1-(2-(trifluoromethyl)quinazolin-4-yl)-1H-1,2,4-triazole-3,5-diamine] | 1000 to 10000
Cc1nc(-n2nc(Nc3ccc(N4CCN(C5CC6CCC5C6)CC4)cc3)nc2N)c2c(C)c(C)sc2n1 (centres unmarked) [Compound 137, N^3-(4-(4-(bicyclo[2.2.1]heptan-2-yl)piperazin-1-yl)phenyl)-1-(2,5,6-trimethylthieno[2,3-d]pyrimidin-4-yl)-1H-1,2,4-triazole-3,5-diamine] | 1000 to 10000
Cc1sc2ncnc(-n3nc(Nc4ccc(N5CCN(C6CC7CCC6C7)CC5)cc4)nc3N)c2c1C (centres unmarked) [Compound 138, N^3-(4-(4-(bicyclo[2.2.1]heptan-2-yl)piperazin-1-yl)phenyl)-1-(5,6-dimethylthieno[2,3-d]pyrimidin-4-yl)-1H-1,2,4-triazole-3,5-diamine] | 1000 to 10000
Cc1csc2c(-n3nc(Nc4ccc(N5CCN(C6CC7CCC6C7)CC5)c(F)c4)nc3N)nc(Cl)nc12 (centres unmarked) [Compound 140, N^3-(4-(4-(bicyclo[2.2.1]heptan-2-yl)piperazin-1-yl)-3-fluorophenyl)-1-(2-chloro-7-methylthieno[3,2-d]pyrimidin-4-yl)-1H-1,2,4-triazole-3,5-diamine] | 1000 to 10000
Nc1nc(Nc2ccc(N3CCN([C@H]4C[C@@H]5CC[C@H]4C5)CC3)cc2)nn1-c1nc(Cl)nc2ccsc12 [Compound 179, 1-(2-chlorothieno[3,2-d]pyrimidin-4-yl)-N^3-(4-(4-((1S,2S,4R)-bicyclo[2.2.1]heptan-2-yl)-piperazin-1-yl)phenyl)-1H-1,2,4-triazole-3,5-diamine] | < 1000
COc1cc2cnc(-n3nc(Nc4ccc(N5CCN(C)CC5)cc4)nc3N)nc2cc1OC [Compound 180, 1-(6,7-dimethoxyquinazolin-2-yl)-N^3-(4-(4-methylpiperazin-1-yl)phenyl)-1H-1,2,4-triazole-3,5-diamine] | < 1000
